# Patent US20090328239A1, “BLOOD VESSEL IMAGING AND USES THEREFOR” (Bio Tree Systems, Inc., priority 2006, published 2009)
# What was measured:
# [1] = tested on: human non-small cell lung tumor cell line (A549) xenotopic tumor; test: Tumor volume in xenotopic tumor model (caliper measurement); assay type: in vivo, mice (SCID); settings: 0.5 mg/kg i.p. twice a week; end-point 1.5 weeks after initial treatment; vs saline/PBS control
# Procedure: A tumor model can be generated by inoculating human non-small cell lung tumor cell line (A549 from ATCC, Inc.) subcutaneously in immunodeficient mice (SCID). SCID male mice (6-8 weeks old from Charles River Inc.) are inoculated subcutaneously in the lower back with a suspension of 1×10^6 human lung tumor cells (A549) in 0.2 ml of PBS. All mice are fed normal chow diet throughout the duration of the experiment. All mice weights are measured throughout the experiment. Tumor size is measured with calipers twice-a-week and tumor volume is calculated using the formula Length^2×Width×0.52. All mice are randomized into two treatment groups (approximately 10 mice per group) when the median tumor volume reaches approximately 500 mm^3. The treatment groups can be treated according to the following schedule using intraperitoneal (i.p.) administration of either a control composition or an anti-angiogenic compound. […]
# (§1) Xenotopic mouse models obtained as described in Example 2 were treated with either a control solution of saline/PBS or an anti-angiogenic preparation of Avastin® at 0.5 mg/kg/i.p. as described above. At the end-point, vascular casts were prepared as described in Example 3 above and analyzed for two treated mice (both treated with Avastin® at 0.5 mg/kg/i.p.) and one control mouse. […]
# [2] = tested on: human non-small cell lung tumor cell line (A549) xenotopic tumor; test: Vascular cast micro-CT analysis of blood vessel diameter distribution in xenotopic tumor model; assay type: in vivo, mice (SCID); settings: 0.5 mg/kg i.p., vascular casts
# Procedure: A tumor model can be generated by inoculating human non-small cell lung tumor cell line (A549 from ATCC, Inc.) subcutaneously in immunodeficient mice (SCID). SCID male mice (6-8 weeks old from Charles River Inc.) are inoculated subcutaneously in the lower back with a suspension of 1×10^6 human lung tumor cells (A549) in 0.2 ml of PBS. All mice are fed normal chow diet throughout the duration of the experiment. All mice weights are measured throughout the experiment. Tumor size is measured with calipers twice-a-week and tumor volume is calculated using the formula Length^2×Width×0.52. All mice are randomized into two treatment groups (approximately 10 mice per group) when the median tumor volume reaches approximately 500 mm^3. The treatment groups can be treated according to the following schedule using intraperitoneal (i.p.) administration of either a control composition or an anti-angiogenic compound. For example, different levels of an anti-angiogenic compound can be used and the results compared to a control group that is not treated with an anti-angiogenic compound (e.g., Avastin® available from Genentech, South San Francisco, Calif.). For example:
# At the end-point, all mice are anesthetized and systemically perfused with a casting agent.
# Perfusion with a casting agent, Mercox (available from Ladd Research, Williston, Vt.) can be performed as follows. An initial anticoagulation step for each animal is performed using an i.v. injection of heparin (10,000 U/ml, 0.3 cc/mouse). After 30 minutes, the animals are anesthetized. Each animal's heart is cannulated and the animal perfused with warm physiological saline at physiological pressure (with an open vein draining the organ or with an open vena cava). Perfusion is continued until the organ or animal is clear of blood. Mercox monomer is filtered through a 0.5 μm filter and a casting resin is prepared by mixing 8 ml Mercox, 2 ml methylmethacrylate, and 0.3 ml catalyst. The resin is infused through the same cannula until the onset of polymerization (the resin changes color to brown and emits heat, ˜10 min). The organ or animal is carefully immersed in a 60° C. water bath for 2 hours (or overnight in a sealed container). […] The resulting cast can be analyzed to identify one or more structural characteristics of interest.
# as §1
substance,measurement,setting,value
"Avastin®: known monoclonal antibody against vascular endothelial growth factor (VEGF), angiogenesis inhibitor available from Genentech","Mean tumor volumes, treated vs control group at the end of the experiment",[1],did not differ significantly
same,Vessel population ratio between large (approximately 147-161 μm) and middle (approximately 33-77 μm) size vessels (FIG. 3),[2]; treated vs control animals,decreased
same,Vessel population ratio between small (approximately 21-35 μm) and middle (approximately 35-49 μm) size vessels (FIG. 2),[2]; treated vs control animals,decreased
same,Percentage of middle diameter sized vessels in treated tumors vs untreated tumors (FIG. 1),[2]; two treated mice vs one control mouse,higher percentage
same,Reduction in small diameter sized vessels in treated tumors vs untreated tumors (FIG. 1),"[2]; two treated mice vs one control mouse, bins 13.8 μm wide",20%
